Test results taken from PubChem BioAssay AID687022 (Broad Institute, 2013).
Activity calls are given as the source filed them.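 Rule for the calls: active = Fitted curve of melting temperature shift crosses the 1.0 threshold at or below the sample's highest valid tested concentration; inconclusive = Flat fit with activity 30 to 70, or invalid fit; inactive = Opposite direction, flat within 30, or no crossing.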

Target: Fibroblast growth factor 22 (Homo sapiens) (UniProt Q9HCT0)
Assay: FGF22 ligand-induced thermal stabilization – biophysical, thermal shift, cherry-pick, FGF22 synaptogenesis inhibitor project, dose response (AID 687022)
Settings: recombinant FGF22 thermal shift, SYPRO orange melting

Sequence of Fibroblast growth factor 22 (Homo sapiens) (Q9HCT0 whole entry, looked up): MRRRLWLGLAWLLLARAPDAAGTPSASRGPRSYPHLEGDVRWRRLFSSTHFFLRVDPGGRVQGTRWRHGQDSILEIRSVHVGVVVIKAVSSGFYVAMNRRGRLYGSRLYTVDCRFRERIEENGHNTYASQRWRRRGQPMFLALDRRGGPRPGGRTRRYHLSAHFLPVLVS

Compound	AbsAC1 (concentration giving Tm-shift threshold 1.0)
O=C1C(=O)C(c2ccccc2)C(=O)C1c1ccccc1 (centres undefined)	10.7 µM
Cc1ccc(S(=O)(=O)NCCC(=O)Nc2ccc(C)c(Cl)c2)cc1C	4.71 µM
O=C(Nc1nnc(C(F)(F)F)s1)c1ccc(Br)s1	15.6 µM
COc1ccc(-c2cn(CC[C@H]3CC[C@H](NC(=O)Nc4ccc(F)cc4)[C@@H](CO)O3)nn2)cc1	18 µM
CSCCC(NS(=O)(=O)c1ccc(Cl)c(Cl)c1)C(=O)O (centres undefined)	> 38 µM (inactive)
COc1ccc(-c2ccc([C@H]3[C@H]4CN(C(=O)c5ccc6c(c5)OCO6)CCCCN4[C@H]3CO)cc2)cc1	15.9 µM
COc1ccc(NC(=O)N(C)C[C@@H]2Oc3ccc(NC(=O)Cc4ccccc4)cc3C(=O)N([C@H](C)CO)C[C@H]2C)cc1	39.8 µM
S=c1[nH]c2cc3ccccc3cc2[nH]1	10.7 µM
O=C(NCC1CCOCC1)c1ccc2nc(Cc3cccc(Cl)c3)oc2c1	6.43 µM
O=[N+]([O-])c1ccc(Nc2cccc(F)c2)nc1	3.78 µM
COC(=O)c1cc(OC)c(OC)cc1NC(=O)c1ccccc1C	16.7 µM
Cc1cccc(S(=O)(=O)N2C[C@H](O)COC[C@H]3O[C@H](CC(=O)Nc4ccccc4)CC[C@@H]32)c1	7.19 µM
O=C(CNS(=O)(=O)c1ccccc1)OCC(=O)c1c[nH]c2ccccc12	9.88 µM
CC1(C)CCC(=O)N2CC[C@H]3C[C@H](OC(=O)Nc4ccccc4)C[C@@H]1[C@H]32	12 µM
Oc1cc(O)cc(-c2cc3ccc(O)cc3o2)c1	14.9 µM
NC(=O)c1ccsc1NC(=O)COC(=O)Cc1c[nH]c2ccccc12	13.9 µM
COc1ccc(-c2nc3ccc([N+](=O)[O-])cc3[nH]2)cc1	1.99 µM
CC(=O)c1ccc(OCCCC(=O)Nc2ccc(S(=O)(=O)N3CCOCC3)cc2)cc1	> 38 µM (inactive)
O=C(CN(Cc1ccccc1)S(=O)(=O)c1ccccc1)N/N=C/c1ccccc1C(=O)O	18.9 µM
CC(C)C#Cc1cnc2c(c1)C(=O)N([C@@H](C)CO)C[C@@H](C)[C@H](CN(C)C(=O)c1cnccn1)O2	> 38 µM (inactive)
CC(C)(C)S(=O)(=O)/C(C#N)=N/Nc1ccc(Cl)cc1	25.7 µM
O=C(CC1SC(=O)NC1=O)Nc1ccc(Cl)cc1 (centres undefined)	3.11 µM
COc1ccc(-c2ccc([C@@H]3[C@@H](CO)N4CCCCN(C(=O)c5ccc(F)cc5)C[C@@H]34)cc2)cc1	3.54 µM

More lines, now with the values ahead:

AbsAC1 (concentration giving Tm-shift threshold 1.0)	Compound
6.16 µM	COc1cccc(NC(=O)CN(C)C(=O)c2cn(-c3ccccc3)nc2-c2cccs2)c1
2.15 µM	O=C(N/N=C/c1c[nH]c2ccccc12)c1cccc(Cl)c1
21.6 µM	CC(=O)Nc1ccc(S(=O)(=O)NCCc2c[nH]c3ccc(C)cc23)cc1
1.72 µM	COc1cccc(C(=O)Nc2cccc(NC(=O)c3cccs3)c2)c1
37.4 µM	C/C(=N\NC(=O)c1nnn(-c2nonc2N)c1CSc1ccc(C)cc1)c1cccnc1
> 38 µM (inactive)	CCOc1ccc(NS(=O)(=O)c2ccc(C(=O)NNC(=O)c3ccccc3O)cc2)cc1
11.8 µM	C[C@H]1CN([C@@H](C)CO)S(=O)(=O)c2ccc(-c3ccncc3)cc2O[C@H]1CN(C)C(=O)Nc1ccc(C(F)(F)F)cc1
2.95 µM	O=C(N/N=C/c1ccc(Cl)cc1)c1ccc2nc[nH]c2c1
4.58 µM	N/C(=N\OCC(=O)Nc1ccc(F)c(Cl)c1)c1ccccc1
10.5 µM	O=C(Nc1ccc(F)cc1)N[C@H]1CC[C@@H](CCn2cc(-c3ccccc3F)nn2)O[C@H]1CO
7.91 µM	CC(=O)Nc1ccc(/C(C)=N/Nc2nc(Nc3ccccc3)nc(N3CCOCC3)n2)cc1
2.49 µM	O=C(NCCc1c[nH]c2ccccc12)c1ccc(Cl)cc1
11.6 µM	Cc1ccsc1C(=O)NNC(=O)c1ccc(NS(=O)(=O)c2cccs2)cc1
5.13 µM	Oc1ccc(-c2csc(Nc3ccccn3)n2)c(O)c1
41 µM	O=C(NCC[C@@H]1CC[C@H](NC(=O)c2cnccn2)[C@H](CO)O1)Nc1ccc(F)cc1
0.929 µM	CCCCNC(=O)c1onc(CSc2ccc(F)c(F)c2)c1C(=O)NCCCC
17.7 µM	CCc1ccc(N2CC(C(=O)OCC(=O)Nc3ccc(C(C)=O)cc3)CC2=O)cc1 (centres undefined)
3.85 µM	CC(=O)c1ccc(NC(=O)c2noc(C(C)C)c2[N+](=O)[O-])cc1
6.42 µM	CC(C)CC(=O)Nc1ccc(C(=O)CN2C(=O)NC3(CCOc4ccccc43)C2=O)cc1 (centres undefined)
3.02 µM	CCN1C/C(=C/c2cccs2)c2nc3ccccc3c(C(=O)O)c2C1
2.42 µM	COc1cc(NC(=O)c2cnc(N)s2)cc(C(=O)Nc2cccc(C(F)(F)F)c2)c1
